From PMC5126104, “Identification of a Chemoreceptor in Pseudomonas aeruginosa That Specifically Mediates Chemotaxis Toward α-Ketoglutarate” (Frontiers in Microbiology, 2016)

B1: McpK ligand binding domain (McpK-LBD) (domain or fragment, Pseudomonas aeruginosa PAO1, UniProt Q9HUB1 38-293, looked up)
chain: RTLTHQTALSEQLAEVASLMEQTQQAEQGRLAFEAGSDPRQAEQVRQTLAGMLQRLQALRDSELDPAALAHQVEAIEAYRKAFDDLAAADQQRSAARGVLVGTAQQALDSFARLEELMDASLAQQAGDPQALQRSRAVADLHQQLLMVRYQVRGYVFERSDKAEQAAFAAFDALRQAATTLRGQLPGEADAALEQAMGSLQGYRGGIEQFRAGVIRTRQAQQAMQSSTQDMARAGRTLTEAGRQLRESTASRDRAS
notes: No removal of the tag is described; In monomer-dimer equilibrium by AUC; also called PA5072-LBD; source: E. coli BL21 (DE3), pET28-McpK-LBD, purified (HisTrap column)

target: T1, McpK (PA5072) chemoreceptor ligand binding domain (Pseudomonas aeruginosa, UniProt Q9HUB1); assay: ITC (two symmetric-site cooperative model; Kd1 =[…], Kd2 =[…]); supported by thermal shift (+[…]°C) and AUC dimer stabilization; settings: not given
T1 construct: McpK-LBD, Arg38–Ser293

Row | Molecule | Kd [µM]
1 | O=C(O)CCC(=O)C(=O)O [α-ketoglutarate] | 80.9

Target: the molecule itself
Assay: AUC; sedimentation equilibrium, multi-speed, ligand-free McpK-LBD at 40, 50 and 60 uM, 7 °C, dialysis buffer (5 mM Tris, 5 mM PIPES, 5 mM MES, pH 8.0); global fit in SEDPHAT; dimer to monomers
Settings: not given

Row | Molecule | Kd [µM]
2 | B1 | 55

target: T1, McpK (PA5072) chemoreceptor ligand binding domain; assay: not given; design: thermal shift assay with SYPRO Orange, Tm change of recombinant McpK-LBD; settings: binder
Description: Thermal shift assays were performed using a BioRad MyIQ2 Real-Time PCR instrument. Ligands were prepared by dissolving Biolog Phenotype Microarray compounds in 50 μl of MilliQ water to obtain a final concentration of around 10–20 mM (as indicated by the manufacturer). Screening was performed with plates PM1, PM2A, PM3B, PM4A, and PM5. Each plate contains 95 compounds and a control (Supplementary Figure S1). Each 25 μl assay mixture contained 40 μM protein in 5 mM Tris, 5 mM Pipes, 5 mM Mes, pH8.0 and SYPRO orange (Life Technologies) at 5x concentration. Aliquots of 2.5 μl of the resuspended Biolog compounds were added to each well. Samples were heated from 23°C to 85°C at a scan rate of 1°C/min. The protein unfolding curves were monitored by detecting changes in SYPRO Orange fluorescence. Melting temperatures were determined using the first derivative values from the raw fluorescence data. […] Ligands tested included different bacterial carbon-, nitrogen-, phosphorous-, and sulfur sources as well as to nutrient supplements, which are listed in Supplementary Figure S1. A total of 13 compounds were identified that increased or decreased the Tm by at least 2°C (Supplementary Table S2), which is the generally accepted threshold for a relevant ligand-induced change in protein stability.

Row | Molecule | Tm Shift (°C)
3 | N[C@@H](CCC(=O)O)C(=O)O [L-Glutamic acid] | +2.3 °C
4 | CC(=O)O [Acetate] | -0.2 °C
5 | CCCC(=O)O [Butyrate] | +0.7 °C
6 | CC(=O)C(=O)O [Pyruvate] | +0.1 °C
7 | O=C1O[C@@H]([C@H](O)CO)[C@H](O)[C@H]1O [D-Galactonic acid-γ-lactone] | +2 °C
8 | NC(=O)CC[C@H](N)C(=O)O [L-Glutamine] | +2.2 °C
9 | COC(=O)C(C)=O [Methyl pyruvate] | +3.3 °C
10 | O=C(O)/C=C/C(=O)O [Fumarate] | +0.3 °C
11 | NCCc1ccccc1 [Phenylethylamine] | +3.5 °C
12 | O=C(O)CC(O)(CC(=O)O)C(=O)O [Citrate] | +0.8 °C
13 | O=c1cc[nH]c(=O)[nH]1 [Uracil] | +4.2 °C
14 | N[C@@H](C(=O)O)[C@@H](O)[C@H](O)[C@H](O)CO [D-Glucosaminic acid] | +3.5 °C
15 | O=C(O)CCC(=O)O [Succinate] | -0.3 °C
16 | CC(O)C(=O)O (stereo not drawn) [Lactate] | +0.2 °C
17 | O=C(O)[C@H]1OC(O)[C@H](O)[C@@H](O)[C@H]1O (stereo partly drawn) [D-Galacturonic acid] | +2.3 °C
18 | O=C(O)CC(=O)C(=O)O [Oxaloacetate] | +0 °C
19 | NC(=O)OP(=O)(O)O [Carbamyl phosphate] | +3.5 °C
20 | O=C(O)CC(CC(=O)O)C(=O)O [Tricarballylate] | +0.3 °C
21 | C=C(CC(=O)O)C(=O)O [Itaconate] | -2.2 °C
22 | NCCCCC(=O)O [5-Aminovaleric acid] | +3.9 °C
23 | O=C(O)CCC(=O)C(=O)O [α-ketoglutarate] | +5.2 °C
24 | O=C(O)CC(O)C(=O)O (stereo not drawn) [Malate] | +0.5 °C
25 | NCCCC(=O)O [γ-Aminobutyric acid] | +4.1 °C

Target: the molecule itself
Assay: AUC; sedimentation equilibrium, multi-speed, McpK-LBD at 40, 50 and 60 uM with 1 mM alpha-ketoglutarate, 7 °C, dialysis buffer (5 mM Tris, 5 mM PIPES, 5 mM MES, pH 8.0); global fit in SEDPHAT; dimer to monomers
Settings: not given

Row | Molecule | Kd [µM]
26 | B1 | 5.9

Target: the molecule itself
Assay: AUC; sedimentation velocity, McpK-LBD (10-50 uM) with 1 mM alpha-ketoglutarate, 7 °C, 5 mM Tris, 5 mM PIPES, 5 mM MES, pH 8.0; c(s) analysis in SEDFIT
Settings: not given

Row | Molecule | stoichiometry N
27 | B1 | 2
